Laboratory results taken from patent US11053218B2, “3-(1-oxoisoindolin-2-yl)piperidine-2,6-dione derivatives and uses thereof” (Novartis AG, priority 2017, dated 2021).
Read-outs that look alike come from different tables or passages of the source.

How the values were obtained:
IKZF2 = IKZF2 (Homo sapiens, UniProt Q96SW2+Q9UKS7); test: Prolabel quantification of IKZF2 protein levels in 293GT cells; assay type: cell-based; settings: 293GT cells; for inhibition at 10 µM: read-out: IKZF2 % protein reduction at 10 μM, 24 h; for DC50: Prolabel assay, read-out: IKZF2 EC50
Sequence of IKZF2 (Q9UKS7 whole entry, the tested form may be a part): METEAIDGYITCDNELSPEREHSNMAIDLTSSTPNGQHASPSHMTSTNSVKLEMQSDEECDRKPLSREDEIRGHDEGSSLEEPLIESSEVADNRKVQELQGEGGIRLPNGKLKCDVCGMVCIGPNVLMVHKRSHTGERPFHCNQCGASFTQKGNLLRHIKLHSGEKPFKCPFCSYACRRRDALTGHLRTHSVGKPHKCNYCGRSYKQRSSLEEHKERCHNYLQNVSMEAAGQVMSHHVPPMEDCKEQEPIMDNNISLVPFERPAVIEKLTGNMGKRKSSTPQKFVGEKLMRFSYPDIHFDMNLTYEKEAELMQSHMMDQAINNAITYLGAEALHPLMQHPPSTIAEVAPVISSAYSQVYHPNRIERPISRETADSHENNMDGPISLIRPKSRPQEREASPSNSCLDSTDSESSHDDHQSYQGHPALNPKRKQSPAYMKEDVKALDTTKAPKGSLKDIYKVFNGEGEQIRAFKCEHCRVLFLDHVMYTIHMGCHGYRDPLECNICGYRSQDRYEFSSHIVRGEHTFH
Sequence of IKZF2 (Q96SW2 whole entry, the tested form may be a part): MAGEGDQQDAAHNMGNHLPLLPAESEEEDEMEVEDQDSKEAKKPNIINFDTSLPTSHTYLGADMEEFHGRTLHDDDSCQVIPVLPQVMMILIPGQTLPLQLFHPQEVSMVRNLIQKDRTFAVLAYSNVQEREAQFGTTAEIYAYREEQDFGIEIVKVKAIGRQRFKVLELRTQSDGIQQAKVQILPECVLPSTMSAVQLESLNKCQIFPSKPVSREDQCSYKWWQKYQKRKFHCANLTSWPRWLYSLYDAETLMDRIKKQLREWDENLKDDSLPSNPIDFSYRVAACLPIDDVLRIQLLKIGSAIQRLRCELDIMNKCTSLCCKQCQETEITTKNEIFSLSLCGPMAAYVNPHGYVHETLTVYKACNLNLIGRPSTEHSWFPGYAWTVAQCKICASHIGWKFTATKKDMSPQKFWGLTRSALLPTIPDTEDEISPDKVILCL
Sequence of IKZF2 (Q16531 whole entry partner, the tested form may be a part): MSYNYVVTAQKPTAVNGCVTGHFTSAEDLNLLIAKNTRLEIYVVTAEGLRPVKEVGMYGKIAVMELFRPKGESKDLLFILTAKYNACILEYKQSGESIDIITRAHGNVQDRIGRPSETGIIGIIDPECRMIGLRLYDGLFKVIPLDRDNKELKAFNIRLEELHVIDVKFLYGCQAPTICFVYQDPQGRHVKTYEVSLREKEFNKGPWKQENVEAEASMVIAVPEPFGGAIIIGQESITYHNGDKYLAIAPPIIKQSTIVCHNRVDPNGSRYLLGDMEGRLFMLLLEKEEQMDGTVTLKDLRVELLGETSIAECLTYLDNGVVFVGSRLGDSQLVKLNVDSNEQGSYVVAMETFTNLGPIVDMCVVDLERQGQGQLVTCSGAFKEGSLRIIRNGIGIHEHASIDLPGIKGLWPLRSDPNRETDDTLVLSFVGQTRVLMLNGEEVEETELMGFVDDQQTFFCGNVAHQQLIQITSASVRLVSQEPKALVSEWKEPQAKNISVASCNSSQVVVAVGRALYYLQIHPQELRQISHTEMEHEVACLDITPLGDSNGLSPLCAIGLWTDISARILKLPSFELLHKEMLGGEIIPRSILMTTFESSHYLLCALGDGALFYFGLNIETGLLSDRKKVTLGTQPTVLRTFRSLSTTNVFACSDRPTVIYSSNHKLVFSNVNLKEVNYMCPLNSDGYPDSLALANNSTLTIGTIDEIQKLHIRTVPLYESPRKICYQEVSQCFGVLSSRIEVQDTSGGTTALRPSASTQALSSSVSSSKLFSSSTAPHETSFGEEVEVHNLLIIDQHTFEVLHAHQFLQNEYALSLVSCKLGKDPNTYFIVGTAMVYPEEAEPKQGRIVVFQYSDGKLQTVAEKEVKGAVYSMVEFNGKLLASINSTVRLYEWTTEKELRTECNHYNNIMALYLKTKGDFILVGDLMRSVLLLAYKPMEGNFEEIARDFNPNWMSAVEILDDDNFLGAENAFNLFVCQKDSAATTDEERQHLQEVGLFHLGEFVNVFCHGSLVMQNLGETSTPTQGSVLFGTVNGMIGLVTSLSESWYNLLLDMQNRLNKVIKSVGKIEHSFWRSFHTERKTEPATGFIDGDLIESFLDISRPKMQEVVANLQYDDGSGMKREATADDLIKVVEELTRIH
Description: (§1) The Prolabel system from DiscoverX was used to develop high-throughput and quantitative assays to measure changes in IKZF1, IKZF2 and GSPT1 protein levels in response to compounds. The prolabel tag was derived from the alpha fragment of beta galactosidase and has the following protein sequence: mssnslavvlqrrdwenpgvtqlnrlaahppfaswrnseeartdrpsqqlrslnge. The complementary fragment of beta-galactosidase (from DiscoverX), is added to the prolabel tag to form an active beta galactosidase enzyme whose activity can be precisely measured. In this way, the levels of a fusion protein with the prolabel tag can be quantified in cell lysates.
(§2) Lentiviral vectors, based on the Invitrogen pLenti6.2/V5 DEST backbone, were constructed that placed the prolabel tag upstream of IKZF1, IKZF2 or GSPT1 and expressed the fusion protein from a CMV promoter.
(§3) To ensure moderate and consistent expression of the prolabel fusion proteins across all cells in the population, stable cell lines were constructed from cells expressing a single copy of the construct. Lentivirus packaged with the constructs was made using the Virapower kit from Invitrogen.
(§4) The levels of prolabel tagged fusion proteins in compound treated cell lines were measured as follows:
(§5) Day 1, Cells were diluted to 1.0×10^6 cells/ml in normal growth medium. 17.5 μL of cells were plated in each well of a solid white 384 well plate. Plates were incubated overnight in a 37° C. tissue culture incubator.
(§6) Day 2, Serial dilutions of compounds were made in 384 well plates from 10 mM stocks. 15 μL of DMSO was added to each well of a 384 well plate. In the first column 15 μL of stock compound was added. The solution was mixed and 15 μL was transferred to the next column. This was repeated until 20 two-fold dilutions were prepared. 2.5 μL of diluted compounds were transferred into 60 μL of cell culture medium in another 384 well plate, and mixed well. 2.5 μL of this mixture was added to the plated cells. The final DMSO concentration was 0.5% and the highest concentration of compound was 50 μM. Plates were incubated overnight (e.g., about 14 h, 18 h, or 24 h) in a 37° C. tissue culture incubator.
(§7) Day 3, Plates were removed from the incubator and allowed to equilibrate at rt for 30 minutes. Prolabel substrate (DiscoverX PathHunter Prolabel Detection Kit, User manual: 93-0180) was added as described by the manufacturers protocols. Plates were incubated at rt for three hours and luminescence was read using an Envision reader (Perkin Elmer) Data was analyzed and visualized using the Spotfire software package.

IKZF1 = IKZF1 (Homo sapiens, UniProt Q13422+Q96SW2); test: Prolabel quantification of IKZF1 protein levels in 293GT cells; assay type: cell-based; settings: Prolabel assay, read-out: IKZF1 EC50
Sequence of IKZF1 (Q13422 whole entry): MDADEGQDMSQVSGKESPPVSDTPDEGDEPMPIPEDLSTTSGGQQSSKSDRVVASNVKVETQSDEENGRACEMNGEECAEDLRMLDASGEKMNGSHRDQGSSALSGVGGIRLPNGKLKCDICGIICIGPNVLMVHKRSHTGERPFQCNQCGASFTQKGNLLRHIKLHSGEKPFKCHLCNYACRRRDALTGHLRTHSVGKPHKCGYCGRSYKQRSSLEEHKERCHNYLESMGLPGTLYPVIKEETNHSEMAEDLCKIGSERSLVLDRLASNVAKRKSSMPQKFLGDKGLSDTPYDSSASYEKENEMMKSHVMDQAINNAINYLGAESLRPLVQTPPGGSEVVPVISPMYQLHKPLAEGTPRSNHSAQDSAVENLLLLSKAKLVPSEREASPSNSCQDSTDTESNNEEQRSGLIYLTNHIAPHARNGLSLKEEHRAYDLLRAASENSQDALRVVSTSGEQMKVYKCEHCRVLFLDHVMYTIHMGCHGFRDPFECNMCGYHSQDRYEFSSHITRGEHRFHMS
Sequence of IKZF1 (Q96SW2 whole entry): as the sequence (Q96SW2 whole entry, the tested form may be a part) above
Sequence of IKZF1 (Q16531 whole entry partner): as the sequence (Q16531 whole entry partner, the tested form may be a part) above
Description: as §1, §2, §3, §4, §5, §6, §7

| SMILES | inhibition at 10 µM (IKZF2; 24 h, 10 μM, 24 h) [%] | DC50 (IKZF2) [nM] | DC50 (IKZF1) [nM] | IKZF2 % protein reduction at 10 μM, 24 h (IKZF2; 10 μM, 24 h) [%] | inhibition at 10 µM (IKZF2; 10 μM, 24 h) [%] |
| --- | --- | --- | --- | --- | --- |
| O=C1CCC(N2Cc3cc(C4CCCN(Cc5ccccc5)CC4)ccc3C2=O)C(=O)N1 (single isomer, unassigned) [Compound I-190, 3-(5-(1-benzylazepan-4-yl)-1-oxoisoindolin-2-yl)piperidine-2,6-dione] | 30 | 170 | > 30000 | – | – |
| O=C1CCC(N2Cc3cc(C4CCN([C@@H](CO)c5ccccc5)CC4)ccc3C2=O)C(=O)N1 (single isomer, unassigned) [Compound I-202] | 40 | 590 | > 30000 | – | – |
| CC(c1ccccc1)N1CCC(c2ccc3c(c2)CN(C2CCC(=O)NC2=O)C3=O)CC1 (single isomer, unassigned) [Compound I-230] | 65 | 9 | > 30000 | – | – |
| C[C@H](c1ccccc1)N1CCC(c2ccc3c(c2)CN(C2CCC(=O)NC2=O)C3=O)CC1 (single isomer, unassigned) [Compound I-247] | 70 | 17 | > 30000 | – | – |
| O=C1CCC(N2Cc3cc(C4CCN(C(CO)c5ccccc5)CC4)ccc3C2=O)C(=O)N1 (single isomer, unassigned) [Compound I-249] | 40 | 850 | > 30000 | – | – |
| O=C1CCC(N2Cc3cc(C4CCCN(Cc5ccccc5)CC4)ccc3C2=O)C(=O)N1 (single isomer, unassigned) [Compound I-273, 3-(5-(1-benzylazepan-4-yl)-1-oxoisoindolin-2-yl)piperidine-2,6-dione] | – | 210 | > 30000 | 20 | – |
| CCN1CCC(c2ccc3c(c2)CN(C2CCC(=O)NC2=O)C3=O)CC1 (stereo not drawn) [Compound I-1, 3-(5-(1-ethylpiperidin-4-yl)-1-oxoisoindolin-2-yl)piperidine-2,6-dione] | – | 67 | > 30000 | – | 60 |
| O=C1CCC(N2Cc3cc(C4CCN(CC5CC5)CC4)ccc3C2=O)C(=O)N1 (stereo not drawn) [Compound I-3, 3-(5-(1-(cyclopropylmethyl)piperidin-4-yl)-1-oxoisoindolin-2-yl)piperidine-2,6-dione] | 60 | 23 | > 30000 | – | – |
| CC(C)CN1CCC(c2ccc3c(c2)CN(C2CCC(=O)NC2=O)C3=O)CC1 (stereo not drawn) [Compound I-4, 3-(5-(1-isobutylpiperidin-4-yl)-1-oxoisoindolin-2-yl) piperidine-2,6-dione] | 60 | 31 | > 30000 | – | – |
| O=C1CCC(N2Cc3cc(C4CCN(CC5CCC5)CC4)ccc3C2=O)C(=O)N1 (stereo not drawn) [Compound I-5, 3-(5-(1-(cyclobutylmethyl)piperidin-4-yl)-1-oxoisoindolin-2-yl)piperidine-2,6-dione] | 60 | 27 | > 30000 | – | – |
| O=C1CCC(N2Cc3cc(C4CCN(Cc5cnc(Cl)s5)CC4)ccc3C2=O)C(=O)N1 (stereo not drawn) [Compound I-10, 3-(5-(1-((2-chlorothiazol-5-yl)methyl)piperidin-4-yl)-1-oxoisoindolin-2-yl)piperidine-2,6-dione] | 60 | 85 | > 30000 | – | – |
| O=C1CCC(N2Cc3cc(C4CCN(CC5CCOCC5)CC4)ccc3C2=O)C(=O)N1 (stereo not drawn) [Compound I-13, 3-(1-oxo-5-(1-((tetrahydro-2H-pyran-4-yl)methyl)piperidin-4-yl)isoindolin-2-yl)piperidine-2,6-dione] | 60 | 29 | > 30000 | – | – |
| O=C1CCC(N2Cc3cc(C4CCN(CCc5ccccc5)CC4)ccc3C2=O)C(=O)N1 (stereo not drawn) [Compound I-14, 3-(1-oxo-5-(1-phenethylpiperidin-4-yl)isoindolin-2-yl)piperidine-2,6-dione] | 65 | 14 | > 30000 | – | – |
| O=C1CCC(N2Cc3cc(C4CCN(Cc5cccc(Cl)c5)CC4)ccc3C2=O)C(=O)N1 (stereo not drawn) [Compound I-16, 3-(5-(1-(3-chlorobenzyl)piperidin-4-yl)-1-oxoisoindolin-2-yl)piperidine-2,6-dione] | 70 | 8 | > 30000 | – | – |
| O=C1CCC(N2Cc3cc(C4CCN(Cc5ccccc5Cl)CC4)ccc3C2=O)C(=O)N1 (stereo not drawn) [Compound I-18, 3-(5-(1-(2-chlorobenzyl)piperidin-4-yl)-1-oxoisoindolin-2-yl)piperidine-2,6-dione] | 65 | 19 | > 30000 | – | – |
| O=C1CCC(N2Cc3cc(C4CCN(Cc5c(F)cccc5F)CC4)ccc3C2=O)C(=O)N1 (stereo not drawn) [Compound I-24, 3-(5-(1-(2,6-difluorobenzyl)piperidin-4-yl)-1-oxoisoindolin-2-yl)piperidine-2,6-dione] | 60 | 39 | > 30000 | – | – |
| O=C1CCC(N2Cc3cc(C4CCN(Cc5cc(F)cc(F)c5)CC4)ccc3C2=O)C(=O)N1 (stereo not drawn) [Compound I-26, 3-(5-(1-(3,5-difluorobenzyl)piperidin-4-yl)-1-oxoisoindolin-2-yl)piperidine-2,6-dione] | 65 | 7 | > 30000 | – | – |
| O=C1CCC(N2Cc3cc(C4CCN(Cc5cc(F)ccc5F)CC4)ccc3C2=O)C(=O)N1 (stereo not drawn) [Compound I-29, 3-(5-(1-(2,5-difluorobenzyl)piperidin-4-yl)-1-oxoisoindolin-2-yl)piperidine-2,6-dione] | 70 | 36 | > 30000 | – | – |
| O=C1CCC(N2Cc3cc(C4CCN(Cc5ccc(CO)cc5)CC4)ccc3C2=O)C(=O)N1 (stereo not drawn) [Compound I-32, 3-(5-(1-(4-(hydroxymethyl)benzyl)piperidin-4-yl)-1-oxoisoindolin-2-yl)piperidine-2,6-dione] | 80 | 46 | > 30000 | – | – |
| N#Cc1ccccc1CN1CCC(c2ccc3c(c2)CN(C2CCC(=O)NC2=O)C3=O)CC1 (stereo not drawn) [Compound I-38, 2-((4-(2-(2,6-dioxopiperidin-3-yl)-1-oxoisoindolin-5-yl)piperidin-1-yl)methyl)benzonitrile] | 55 | 41 | > 30000 | – | – |
| Cc1ccc(CN2CCC(c3ccc4c(c3)CN(C3CCC(=O)NC3=O)C4=O)CC2)c(C)c1 (stereo not drawn) [Compound I-42, 3-(5-(1-(2,4-dimethylbenzyl)piperidin-4-yl)-1-oxoisoindolin-2-yl)piperidine-2,6-dione] | 60 | 9 | > 30000 | – | – |
| CC(C)c1ccc(CN2CCC(c3ccc4c(c3)CN(C3CCC(=O)NC3=O)C4=O)CC2)cc1 (stereo not drawn) [Compound I-45, 3-(5-(1-(4-isopropylbenzyl)piperidin-4-yl)-1-oxoisoindolin-2-yl)piperidine-2,6-dione] | 80 | 8 | > 30000 | – | – |
| O=C1CCC(N2Cc3cc(C4CCN(Cc5ccc6ccccc6c5)CC4)ccc3C2=O)C(=O)N1 (stereo not drawn) [Compound I-47, 3-(5-(1-(naphthalen-2-ylmethyl)piperidin-4-yl)-1-oxoisoindolin-2-yl)piperidine-2,6-dione] | 80 | 8 | > 30000 | – | – |
| O=C1CCC(N2Cc3cc(C4CCN(Cc5cccc6ccccc56)CC4)ccc3C2=O)C(=O)N1 (stereo not drawn) [Compound I-49, 3-(5-(1-(naphthalen-1-ylmethyl)piperidin-4-yl)-1-oxoisoindolin-2-yl)piperidine-2,6-dione] | 60 | 4 | > 30000 | – | – |
| O=C1CCC(N2Cc3cc(C4CCN(Cc5ccc(OC(F)(F)F)cc5)CC4)ccc3C2=O)C(=O)N1 (stereo not drawn) [Compound I-51, 3-(1-oxo-5-(1-(4-(trifluoromethoxy)benzyl)piperidin-4-yl)isoindolin-2-yl)piperidine-2,6-dione] | 60 | 15 | > 30000 | – | – |
| O=C1CCC(N2Cc3cc(C4CCN(Cc5cccc(OC(F)(F)F)c5)CC4)ccc3C2=O)C(=O)N1 (stereo not drawn) [Compound I-54, 3-(1-oxo-5-(1-(3-(trifluoromethoxy)benzyl)piperidin-4-yl)isoindolin-2-yl)piperidine-2,6-dione] | 60 | 20 | > 30000 | – | – |
| O=C1CCC(N2Cc3cc(C4CCN(Cc5ccccn5)CC4)ccc3C2=O)C(=O)N1 (stereo not drawn) [Compound I-58, 3-(1-oxo-5-(1-(pyridin-2-ylmethyl)piperidin-4-yl)isoindolin-2-yl)piperidine-2,6-dione] | 60 | 53 | > 30000 | – | – |
